Data: publication PMC5799700, “Screening for PPAR Non-Agonist Ligands Followed by Characterization of a Hit, AM-879, with Additional No-Adipogenic and cdk5-Mediated Phosphorylation Inhibition Properties” (Frontiers in Endocrinology, 2018)
Entries after “also recorded” stand apart in the source; their conditions may differ.

Columns and labels:
[1] = tested on: 3T3-L1 cells; assay: Adipocyte differentiation assay, Oil Red O; type: cell-based; details: 1 μM ligand; for Adipocyte differentiation / adipogenesis (in words): Oil Red O staining
Protocol: 3T3-L1 (ATCC® CRL-3242™) cells were cultured in DMEM (Gibco®) supplemented with 10% (v/v) fetal bovine serum, 50 U/mL penicillin, and […] streptomycin, at 37°C, and humidified atmosphere of 5% CO2. After achieved 70% confluency, cells were trypsinized and seeded in 6-well plates (Corning) at a density of 2.8 × 10^5 cells/well. After 2 days, cells were treated with dexamethasone ([…]) to induce preadipocytes differentiation, and 1 μM of Rosi, 1 μM of AM-879, or 1% DMSO. After treatment, the culture medium was exchanged every 48 h, supplemented with 1 μM of each ligand, for 6 days. In order to measure adipocyte differentiation, fully differentiated 3T3-L1 cells were washed with phosphate-buffered saline (PBS), fixed with 10% formalin (v/v) for 1 h, and then, stained with oil red solution (Oil Red O) (0.3% in isopropanol 60%) for 20 min. After staining, cells were washed with PBS and photographed in Nikon MTS microscope (Nikon). Lipid accumulation was also quantified by Oil Red O absorbance measurement at 520 nm. For this measurement, cells lysis was performed in 200 μL of isopropanol and 4% Igepal solution, and the absorbance of the samples was recorded in a 10-mm cuvette in a spectrophotometer (V-530, Jasco). Data were compared using unpaired t-test.

[2] = molecular target: T1, PPARγ LBD (Homo sapiens, UniProt P37231); assay: Thermal shift assay (TSA), SYPRO Orange; type: binding; details: PPARγ 4 μM, threefold ligand excess (12 μM)
T1 construct: construction (isoform PPARγ1), encoding AAs 207–477, inserted in pET 28a (+); made in house; host or cells: Escherichia coli BL21 (DE3)
T1 sequence (P37231 207-477 isoform P37231-2): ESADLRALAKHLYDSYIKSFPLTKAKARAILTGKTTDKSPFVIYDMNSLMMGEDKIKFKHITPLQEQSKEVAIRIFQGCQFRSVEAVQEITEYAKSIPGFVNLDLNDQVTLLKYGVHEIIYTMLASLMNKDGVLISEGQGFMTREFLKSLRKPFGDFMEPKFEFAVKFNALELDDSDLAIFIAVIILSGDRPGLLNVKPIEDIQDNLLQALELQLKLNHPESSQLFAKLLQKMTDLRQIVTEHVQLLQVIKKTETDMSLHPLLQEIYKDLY
Protocol: Protein thermal unfolding was monitored by measuring the SYPRO® Orange probe (Life technologies) fluorescence. […] Rosi was used as a PPARγ full agonist control and, dimethyl sulfoxide (DMSO), as apo-PPARγ control. TSA was performed in triplicates, in 96-well PCR microplates (Applied Biosystems—Life Technologies), through an RT-PCR device (7500 Real Time PCR System). Samples were heated at 1°C per min, from 10 to 90°C. Fluorescence intensities were plotted as a function of temperature and, the melting temperature (Tm) of the protein unfolding transition was obtained through a Boltzmann model in Origin Pro 8.1 and using an Excel based worksheet (DSF Analysis v3.0.2, ftp://ftp.sgc.ox.ac.uk/pub/biophysics).

[3] = molecular target: T1, PPARγ LBD; assay: NanoDSF, intrinsic tryptophan and tyrosine fluorescence; type: binding; details: PPARγ 25 μM, ligand 75 μM (3 M excess)
Protocol: Intrinsic tryptophan and tyrosine fluorescence were measured using NT48 device (NanoTemper), as a more sensitive technology to check protein stability in comparison to TSA. […] The initial fluorescence scan of loaded capillaries was performed at 20°C, monitoring emission wavelength at 330 and 350 nm in order to find the optimal signal range. After this step, samples were subjected to a temperature ramp of 1°C/min from 20 to 90°C and fluorescence was constantly monitored. Data were analyzed and Tm was determined using PR. ThermControl software (NanoTemper).

[4] = molecular target: T1, PPARγ LBD; assay: ANS fluorescence quenching ligand-binding assay; details: PPARγ 1 μM, ANS 10 μM, ligand 0.1-60 μM, Hill model, 25°C; read-out: Kd (dissociation constant) from ANS displacement
Protocol: 8-Anilino-1-naphthalenesulfonic acid fluorescence quenching assay was performed incubating 1 μM of PPARγ with 10 μM of the fluorescent probe ANS for 30 min. Following this, increasing concentrations (0.1–60 μM) of the pre-selected 20 compounds were titrated in protein-ANS solution. […] Fluorescence data were fitted to binding curves using Hill model for dissociation constant (Kd) calculation. All experiments were performed in triplicates and data were processed using the software Origin Pro 8.1.

[5] = molecular target: T2, PPARγ (Homo sapiens, UniProt P37231); assay: Cell transactivation assay, GAL4-PPARγ-LBD reporter gene; type: cell-based; details: 293T cells, up to 0.1 mM
T2 construct: a chimeric protein composed by GAL4-DBD and PPARγ-LBD; expressed in transfected cells; host or cells: 293T (ATCC CRL-3216)
T2 sequence (P37231 238-503 limits assumed): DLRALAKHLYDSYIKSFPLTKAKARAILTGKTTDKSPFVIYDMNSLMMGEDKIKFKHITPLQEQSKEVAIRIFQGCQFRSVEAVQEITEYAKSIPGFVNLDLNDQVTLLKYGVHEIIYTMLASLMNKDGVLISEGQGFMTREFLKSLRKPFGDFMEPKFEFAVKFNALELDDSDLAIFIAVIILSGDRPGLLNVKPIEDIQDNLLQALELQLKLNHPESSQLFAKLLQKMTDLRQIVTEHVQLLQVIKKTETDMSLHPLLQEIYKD
Protocol: (§1) For transactivation assays, cells were seeded in 24-well plates (density of 2.0 × 10^5 cells/well), and transiently transfected with Lipofectamine® 2000 (Invitrogen) and 0.5 μg of the following plasmids: pRL-TK, a transfection control, which express Renilla reniformis luciferase constitutively; pGRE-LUC, which contains responsive element for GAL4 protein followed by reporter gene of firefly luciferase; pBIND-PPARγ, a chimeric protein composed by GAL4-DBD and PPARγ-LBD, under control of the cytomegalovirus promoter (CMV), in a proportion of 1.5 μg DNA:2 μL of Lipofectamine. As negative control, empty BlueScript plasmid was used instead of pBIND-PPARγ. For isotype specificity transactivation assay, cells were seeded in 96-well plates (density of 4.0 × 10^4 cells/well) and transfected with pRL-TK; pGRE-LUC and pBIND-PPARα; and pBIND-PPARβ.
Four hours after transfection, the culture medium was exchanged to DMEM plus 10% FBS Charcoal stripped broth and 1 μM of each tested compound, Rosi or 1% DMSO was added to each well. In dose–response experiments, concentration of compounds was increased from 0.01 to 0.1 mM. After 24 h of treatment, reporter gene expression was measured with Dual-Luciferase® Reporter (DLR™) Assay System (Promega), according to manufacturer’s instructions in a GloMax-Multi + Detection System (Promega). […]

[6] = molecular target: T3, PPARα (Homo sapiens, UniProt Q07869); assay: Isotype specificity transactivation assay, GAL4-PPARα-LBD reporter gene; type: cell-based; details: 293T cells, ligands 1 μM, compared with full agonist
T3 construct: using a GAL4-PPARα-LBD (A) or GAL4-PPARβ-LBD (B) reporter gene; expressed in transfected cells; host or cells: HEK 293T
T3 sequence (Q07869 239-466 limits assumed): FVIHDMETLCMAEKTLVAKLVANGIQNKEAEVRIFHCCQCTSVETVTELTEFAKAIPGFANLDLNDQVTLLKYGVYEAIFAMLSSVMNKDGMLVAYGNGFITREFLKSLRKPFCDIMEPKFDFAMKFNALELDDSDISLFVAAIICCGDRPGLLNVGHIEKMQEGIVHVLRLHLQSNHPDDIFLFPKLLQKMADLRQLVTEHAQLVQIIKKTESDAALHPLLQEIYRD
Protocol: as §1, with “293T (ATCC® CRL-3216™) cells were cultured in Dulbecco’s Modified Eagle’s Medium (DMEM, Gibco®) supplemented with 10% (v/v) fetal bovine serum, 50 U/mL penicillin, and […] streptomycin, at 37°C, and humidified atmosphere of 5% CO2. For” for “For”, “For isotype specificity transactivation assay, cells were seeded in 96-well plates (density of 4.0 × 10^4 cells/well) and transfected with pRL-TK; pGRE-LUC and pBIND-PPARα; and pBIND-PPARβ.” left out
(§2) Four hours after transfection, the culture medium was exchanged to DMEM plus 10% FBS Charcoal stripped broth and 1 μM of each tested compound, Rosi or 1% DMSO was added to each well. […] After 24 h of treatment, reporter gene expression was measured with Dual-Luciferase® Reporter (DLR™) Assay System (Promega), according to manufacturer’s instructions in a GloMax-Multi + Detection System (Promega). […]

[7] = molecular target: T4, PPARβ (Homo sapiens, UniProt Q03181); assay: Isotype specificity transactivation assay, GAL4-PPARβ-LBD reporter gene; type: cell-based; details: 293T cells, ligands 1 μM, compared with full agonist
T4 construct: using a GAL4-PPARα-LBD (A) or GAL4-PPARβ-LBD (B) reporter gene; expressed in transfected cells; host or cells: HEK 293T
T4 sequence (Q03181 211-439 limits assumed): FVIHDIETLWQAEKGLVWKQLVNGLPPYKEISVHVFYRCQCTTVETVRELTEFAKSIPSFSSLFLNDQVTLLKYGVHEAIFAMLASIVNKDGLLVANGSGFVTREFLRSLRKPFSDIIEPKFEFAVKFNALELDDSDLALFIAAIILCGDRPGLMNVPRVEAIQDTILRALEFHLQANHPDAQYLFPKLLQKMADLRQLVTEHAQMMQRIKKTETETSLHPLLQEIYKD
Protocol: as §1, with “293T (ATCC® CRL-3216™) cells were cultured in Dulbecco’s Modified Eagle’s Medium (DMEM, Gibco®) supplemented with 10% (v/v) fetal bovine serum, 50 U/mL penicillin, and […] streptomycin, at 37°C, and humidified atmosphere of 5% CO2. For” for “For”, “For isotype specificity transactivation assay, cells were seeded in 96-well plates (density of 4.0 × 10^4 cells/well) and transfected with pRL-TK; pGRE-LUC and pBIND-PPARα; and pBIND-PPARβ.” left out
as §2

[8] = tested on: PPARγ target genes in 3T3-L1 cells; assay: Gene expression analysis (RT-qPCR) in differentiated 3T3-L1 cells; type: cell-based; details: 1 μM ligand, vs DMSO
Protocol: Total RNA from differentiated 3T3-L1 cells was extracted by RNeasy kit (Qiagen) and cDNAs were synthesized with High-Capacity cDNA Reverse Transcription Kit (ThermoFischer Scientific). Quantitative PCR reactions were performed with SYBR Real Time PCR master mixes (ThermoFischer Scientific) and 50 ng of cDNA, in a 7500 Real Time PCR system (Applied Biosystems). Relative mRNA expression was determined by the ΔΔ-Ct method normalized to GAPDH levels. The sequences of primers used in this study are presented in Table S2 in Supplementary Material.

[9] = molecular target: T5, CDK5-mediated phosphorylation of PPARγ at serine 273 (Homo sapiens, UniProt P37231); assay: In vitro phosphorylation assay (ADP-Glo); type: biochemical; details: PPARγ LBD 1.2 μM, 5 M excess of ligand, 50 ng CDK5/p35, ATP 10 μM, 1 h
T5 construct: construction (isoform PPARγ1), encoding AAs 207–477, inserted in pET 28a (+); host or cells: Escherichia coli BL21 (DE3) for PPARγ LBD
T5 sequence (P37231 207-477 isoform P37231-2): T1 sequence (P37231 207-477 isoform P37231-2)
Protocol: Then, protein and ligands were incubated with 50 ng CDK5/p35 (Sigma), for 1 h, at room temperature, in the CDK5/p35 reaction buffer (composition recommended by manufacturer) and in the presence of ATP 10 μM. After reaction, ADP detection was performed by using ADP-Glo™ kinase assay (Promega) following manufacturer’s instructions. Luminesce signal was recorded using GloMax-Multi + Detection System (Promega) microplate luminometer.

[10] = molecular target: T2, PPARγ; design: method as in PMID 24075729; details: cited from earlier work

Structure (SMILES)	Adipocyte differentiation / adipogenesis (in words) [1]	Tm from TSA [2] [°C]	Tm from nanoDSF [3] [°C]	Kd [4] [µM]	PPARγ activation (dose-response, in words) [5]	PPARα activation [6]	PPARβ activation [7]	Lipid accumulation (Oil Red O absorbance at 520 nm) in comparison with DMSO ([1]; 6 days) [fold]	Adipoq (Adiponectin) relative expression [8]	Cd36 relative expression [8]	Cebpa relative expression [8]	Cfd (Adipsin) relative expression [8]	Lep (Leptin) relative expression [8]	Lpl relative expression [8]	Pparg relative expression [8]	Decrease of CDK5-mediated phosphorylation of PPARγ (Ser 273) [9] [%]	Effect on PPARγ activation (earlier description as possible antagonist) [10]
CN(CCOc1ccc(CC2SC(=O)NC2=O)cc1)c1ccccn1 (stereo not drawn) [Rosiglitazone, rosiglitazone, reference compound]	strongly induced adipogenesis																
O=C(O)c1ccc(COc2ccccc2C=C2C(=O)c3ccccc3C2=O)cc1 [AM-879, 4-({2-[(1,3-dioxo-1,3-dihydro-2H-inden-2-ylidene)methyl]phenoxy}methyl) benzoic acid]	did not induce a significant increase in adipocyte differentiation	49.83 ± 0.01	48.8 ± 0.114	4.5 ± 0.6	did not activate PPARγ even at the highest concentration; also recorded: did not present any significant change in PPARγ activation	none of them activated	none of them activated	1.12 ± 0.13	slightly reduced levels	slightly reduced levels	did not alter	slightly reduced levels	did not alter	did not alter	did not alter	28	reduced the activation of the receptor
O=C(O)c1ccc(/C=C/C(=O)c2ccc3ccccc3c2)cc1 [P11]		49.4 ± 0.1	48.0 ± 0.172	3.3 ± 0.7	did not activate PPARγ even at the highest concentration; also recorded: did not present any significant change in PPARγ activation	none of them activated	none of them activated										
